Laboratory results as given in ChEMBL document CHEMBL5550184, “Structure-activity relationships of middle-size cyclic peptides, KRAS inhibitors derived from an mRNA display” (Bioorg Med Chem, 2024).
Starred links: 1 amine or outer side, 2 acyl side, 3 side chain; linkers in the order of their positions; H or OH if unused. Positions of bridges follow the written chain, without caps; N, C: chain ends. Non-standard residues stand in square brackets, D forms with d. Residues, ends and D or L forms follow the SMILES beside them. *: point of attachment. hPhe(3-Cl-4-CF3) = N[C@@H](CCc1ccc(C(F)(F)F)c(Cl)c1)C(=O)O; X2 = CN([C@@H](CC(=O)[*:2])C(=O)n1cccc1)[*:1]; NMePhe(4-Cl) = CN[C@@H](Cc1ccc(Cl)cc1)C(=O)O; X1 = O=C([C@H](CC(=O)[*:2])N[*:1])n1cccc1; Phe(3-Cl) = N[C@@H](Cc1cccc(Cl)c1)C(=O)O; NMeAla(cPr) = CN[C@@H](CC1CC1)C(=O)O; NMeGly(cBu) = CN[C@H](C(=O)O)C1CCC1; NMeCha = CN[C@@H](CC1CCCCC1)C(=O)O; NMeGly(cPr) = CN[C@H](C(=O)O)C1CC1; NMeChg = CN[C@H](C(=O)O)C1CCCCC1; NMeF = CN[C@@H](Cc1ccccc1)C(=O)O; NMeI = CC[C@H](C)[C@H](NC)C(=O)O; NMeD = CN[C@@H](CC(=O)O)C(=O)O; NMeL = CN[C@@H](CC(C)C)C(=O)O; NMeNle = CCCC[C@H](NC)C(=O)O; NMeNva = CCC[C@H](NC)C(=O)O; NMeV = CN[C@H](C(=O)O)C(C)C; NMeA = CN[C@@H](C)C(=O)O; Piperidide = C1CCN(*)CC1; Pyrrolidide = C1CCN(*)C1; Ac5c = NC1(C(=O)O)CCCC1; Aze = O=C(O)[C@@H]1CCN1; Sar = CNCC(=O)O

Columns and labels:
ASPC1 = assay: Cytotoxicity against human AsPC1 cells assessed as reduction in cell viability incubated for 7 days by CellTiterGlo Luminescent Cell Viability Assay; format: functional, cell-based; settings: ASPC1, 168 h
[1] = Inhibition of biotin-tagged KRAS G12D mutant (unknown origin) to recombinant His-tagged SOS1 (unknown origin) protein-protein interaction incubated for 120 mins by AlphaLISA method; parameters: species or system Homo sapiens
[2] = Apparent permeability in human Caco-2 cells incubated for 180 mins by LC-MS/MS method; format: ADME, cell-based

Row | Compound | IC50 (ASPC1) [nM] | IC50 [1] [nM] | Papp at 3 h [2] [×10⁻⁶ cm/s]
1 | CC[C@H](C)[C@@H]1NC(=O)[C@H](C2CCCCC2)N(C)C(=O)C[C@@H](C(=O)N2CCCCC2)N(C)C(=O)[C@H](C(C)C)N(C)C(=O)C2(CCCC2)NC(=O)[C@@H]2CCCN2C(=O)[C@H](CCc2ccc(C(F)(F)F)c(Cl)c2)NC(=O)CN(C)C(=O)[C@H](CC2CCCCC2)N(C)C(=O)CN(C)C(=O)CN(C)C1=O ([NMeChg]I[Sar][Sar][NMeCha][Sar][hPhe(3-Cl-4-CF3)]P[Ac5c][NMeV][NMeD]-Piperidide; lactam N-11) | 650 | 7.8 | 0.37
2 | CC[C@H](C)[C@@H]1NC(=O)[C@H](C2CCC2)N(C)C(=O)C[C@@H](C(=O)N2CCCCC2)N(C)C(=O)[C@H](C(C)C)N(C)C(=O)C2(CCCC2)NC(=O)[C@@H]2CCCN2C(=O)[C@H](CCc2ccc(C(F)(F)F)c(Cl)c2)NC(=O)CN(C)C(=O)[C@H](CC2CCCCC2)N(C)C(=O)CN(C)C(=O)CN(C)C1=O ([NMeGly(cBu)]I[Sar][Sar][NMeCha][Sar][hPhe(3-Cl-4-CF3)]P[Ac5c][NMeV][NMeD]-Piperidide; lactam N-11) | 130 | 2.8 | 0.91
3 | CC[C@H](C)[C@@H]1NC(=O)[C@H](C)N(C)C(=O)C[C@@H](C(=O)N2CCCC2)NC(=O)[C@H](C(C)C)N(C)C(=O)[C@H](Cc2ccccc2)N(C)C(=O)[C@H](Cc2c[nH]c3ccccc23)NC(=O)[C@H](Cc2cccc(Cl)c2)NC(=O)CN(C)C(=O)[C@H](Cc2ccc(Cl)cc2)N(C)C(=O)CN(C)C(=O)CN(C)C1=O ([NMeA]I[Sar][Sar][NMePhe(4-Cl)][Sar][Phe(3-Cl)]W[NMeF][NMeV]D-Pyrrolidide; lactam N-11) | – | 54 | –
4 | CC[C@H](C)[C@@H]1NC(=O)[C@H](C)N(C)C(=O)C[C@@H](C(=O)n2cccc2)N(C)C(=O)[C@H]([C@@H](C)CC)N(C)C(=O)[C@H](Cc2ccccc2)N(C)C(=O)[C@H](Cc2ccccc2)NC(=O)[C@H](Cc2cccc(Cl)c2)NC(=O)CN(C)C(=O)[C@H](Cc2ccc(Cl)cc2)N(C)C(=O)CN(C)C(=O)CN(C)C1=O (cyclo(F[NMeF][NMeI][X2][NMeA]I[Sar][Sar][NMePhe(4-Cl)][Sar][Phe(3-Cl)])) | – | 87 | 0.09
5 | CC[C@H](C)[C@@H]1NC(=O)[C@H](CC(C)C)N(C)C(=O)C[C@@H](C(=O)N2CCCCC2)N(C)C(=O)[C@H](C2CC2)N(C)C(=O)C2(CCCC2)NC(=O)[C@@H]2CCCN2C(=O)[C@H](CCc2ccc(C(F)(F)F)c(Cl)c2)NC(=O)CN(C)C(=O)[C@H](CC2CCCCC2)N(C)C(=O)[C@@H]2CCN2C(=O)[C@H](C)N(C)C1=O ([NMeL]I[NMeA][Aze][NMeCha][Sar][hPhe(3-Cl-4-CF3)]P[Ac5c][NMeGly(cPr)][NMeD]-Piperidide; lactam N-11) | 1100 | 50 | 1.36
6 | CC[C@H](C)[C@@H]1NC(=O)[C@H](CC(C)C)N(C)C(=O)C[C@@H](C(=O)N2CCCCC2)N(C)C(=O)[C@H](C(C)C)N(C)C(=O)C2(CCCC2)NC(=O)[C@@H]2CCCN2C(=O)[C@H](CCc2ccc(C(F)(F)F)c(Cl)c2)NC(=O)CN(C)C(=O)[C@H](CC2CCCCC2)N(C)C(=O)CN(C)C(=O)CN(C)C1=O ([NMeL]I[Sar][Sar][NMeCha][Sar][hPhe(3-Cl-4-CF3)]P[Ac5c][NMeV][NMeD]-Piperidide; lactam N-11) | 120 | 6 | 1.12
7 | CCCC[C@H]1C(=O)N(C)[C@H](C(=O)n2cccc2)CC(=O)N(C)[C@@H](C)C(=O)N[C@@H]([C@@H](C)CC)C(=O)N(C)CC(=O)N(C)CC(=O)N(C)[C@@H](Cc2ccc(Cl)cc2)C(=O)N(C)CC(=O)N[C@@H](Cc2cccc(Cl)c2)C(=O)N[C@@H](Cc2ccccc2)C(=O)N(C)[C@@H](Cc2ccccc2)C(=O)N1C (cyclo(F[NMeF][NMeNle][X2][NMeA]I[Sar][Sar][NMePhe(4-Cl)][Sar][Phe(3-Cl)])) | – | 270 | 0.09
8 | CC[C@H](C)[C@@H]1NC(=O)[C@H](CC(C)C)N(C)C(=O)C[C@@H](C(=O)N2CCCCC2)N(C)C(=O)[C@H](C2CCC2)N(C)C(=O)C2(CCCC2)NC(=O)[C@@H]2CCCN2C(=O)[C@H](CCc2ccc(C(F)(F)F)c(Cl)c2)NC(=O)CN(C)C(=O)[C@H](CC2CCCCC2)N(C)C(=O)[C@@H]2CCN2C(=O)[C@H](C)N(C)C1=O ([NMeL]I[NMeA][Aze][NMeCha][Sar][hPhe(3-Cl-4-CF3)]P[Ac5c][NMeGly(cBu)][NMeD]-Piperidide; lactam N-11) | 170 | 2.5 | 0.91
9 | CCC[C@H]1C(=O)N(C)[C@H](C(=O)n2cccc2)CC(=O)N(C)[C@@H](C)C(=O)N[C@@H]([C@@H](C)CC)C(=O)N(C)CC(=O)N(C)CC(=O)N(C)[C@@H](Cc2ccc(Cl)cc2)C(=O)N(C)CC(=O)N[C@@H](Cc2cccc(Cl)c2)C(=O)N[C@@H](Cc2ccccc2)C(=O)N(C)[C@@H](Cc2ccccc2)C(=O)N1C (cyclo(F[NMeF][NMeNva][X2][NMeA]I[Sar][Sar][NMePhe(4-Cl)][Sar][Phe(3-Cl)])) | – | 97 | 0.14
10 | CC[C@H](C)[C@@H]1NC(=O)[C@H](CC2CC2)N(C)C(=O)C[C@@H](C(=O)N2CCCCC2)N(C)C(=O)[C@H](C(C)C)N(C)C(=O)C2(CCCC2)NC(=O)[C@@H]2CCCN2C(=O)[C@H](CCc2ccc(C(F)(F)F)c(Cl)c2)NC(=O)CN(C)C(=O)[C@H](CC2CCCCC2)N(C)C(=O)CN(C)C(=O)CN(C)C1=O ([NMeAla(cPr)]I[Sar][Sar][NMeCha][Sar][hPhe(3-Cl-4-CF3)]P[Ac5c][NMeV][NMeD]-Piperidide; lactam N-11) | 650 | 10 | 0.34
11 | CC[C@H](C)[C@@H]1NC(=O)[C@H](C2CC2)N(C)C(=O)C[C@@H](C(=O)N2CCCCC2)N(C)C(=O)[C@H](C(C)C)N(C)C(=O)C2(CCCC2)NC(=O)[C@@H]2CCCN2C(=O)[C@H](CCc2ccc(C(F)(F)F)c(Cl)c2)NC(=O)CN(C)C(=O)[C@H](CC2CCCCC2)N(C)C(=O)CN(C)C(=O)CN(C)C1=O ([NMeGly(cPr)]I[Sar][Sar][NMeCha][Sar][hPhe(3-Cl-4-CF3)]P[Ac5c][NMeV][NMeD]-Piperidide; lactam N-11) | 720 | 8.5 | 0.46
12 | CC[C@H](C)[C@@H]1NC(=O)[C@H](CC(C)C)N(C)C(=O)C[C@@H](C(=O)N2CCCCC2)N(C)C(=O)[C@H]([C@@H](C)CC)N(C)C(=O)C2(CCCC2)NC(=O)[C@@H]2CCCN2C(=O)[C@H](CCc2ccc(C(F)(F)F)c(Cl)c2)NC(=O)CN(C)C(=O)[C@H](CC2CCCCC2)N(C)C(=O)[C@@H]2CCN2C(=O)[C@H](C)N(C)C1=O ([NMeL]I[NMeA][Aze][NMeCha][Sar][hPhe(3-Cl-4-CF3)]P[Ac5c][NMeI][NMeD]-Piperidide; lactam N-11) | 48 | 2.8 | 0.75
13 | CC[C@H](C)[C@@H]1NC(=O)[C@H](CC(C)C)N(C)C(=O)C[C@@H](C(=O)N2CCCCC2)N(C)C(=O)[C@H](CC2CCCCC2)N(C)C(=O)C2(CCCC2)NC(=O)[C@@H]2CCCN2C(=O)[C@H](CCc2ccc(C(F)(F)F)c(Cl)c2)NC(=O)CN(C)C(=O)[C@H](CC2CCCCC2)N(C)C(=O)[C@@H]2CCN2C(=O)[C@H](C)N(C)C1=O ([NMeL]I[NMeA][Aze][NMeCha][Sar][hPhe(3-Cl-4-CF3)]P[Ac5c][NMeCha][NMeD]-Piperidide; lactam N-11) | 30000 | 45 | –
14 | CC[C@H](C)[C@@H]1NC(=O)[C@H](C)N(C)C(=O)C[C@@H](C(=O)n2cccc2)N(C)C(=O)[C@H](C(C)C)N(C)C(=O)[C@H](Cc2ccccc2)N(C)C(=O)[C@H](Cc2ccccc2)NC(=O)[C@H](Cc2cccc(Cl)c2)NC(=O)CN(C)C(=O)[C@H](Cc2ccc(Cl)cc2)N(C)C(=O)CN(C)C(=O)CN(C)C1=O (cyclo(F[NMeF][NMeV][X2][NMeA]I[Sar][Sar][NMePhe(4-Cl)][Sar][Phe(3-Cl)])) | – | 70 | 0.11
15 | CC[C@H](C)[C@@H]1NC(=O)[C@H](CC(C)C)N(C)C(=O)C[C@@H](C(=O)N2CCCCC2)N(C)C(=O)[C@H](CC(C)C)N(C)C(=O)C2(CCCC2)NC(=O)[C@@H]2CCCN2C(=O)[C@H](CCc2ccc(C(F)(F)F)c(Cl)c2)NC(=O)CN(C)C(=O)[C@H](CC2CCCCC2)N(C)C(=O)[C@@H]2CCN2C(=O)[C@H](C)N(C)C1=O ([NMeL]I[NMeA][Aze][NMeCha][Sar][hPhe(3-Cl-4-CF3)]P[Ac5c][NMeL][NMeD]-Piperidide; lactam N-11) | 240 | 3.9 | –
16 | CCC[C@H]1C(=O)N(C)[C@H](C(=O)N2CCCCC2)CC(=O)N(C)[C@@H](CC(C)C)C(=O)N[C@@H]([C@@H](C)CC)C(=O)N(C)[C@@H](C)C(=O)N2CC[C@H]2C(=O)N(C)[C@@H](CC2CCCCC2)C(=O)N(C)CC(=O)N[C@@H](CCc2ccc(C(F)(F)F)c(Cl)c2)C(=O)N2CCC[C@H]2C(=O)NC2(CCCC2)C(=O)N1C ([NMeL]I[NMeA][Aze][NMeCha][Sar][hPhe(3-Cl-4-CF3)]P[Ac5c][NMeNva][NMeD]-Piperidide; lactam N-11) | 310 | 5.7 | –
17 | CC[C@H](C)[C@@H]1NC(=O)[C@H](C)N(C)C(=O)C[C@@H](C(=O)n2cccc2)NC(=O)[C@H](C)N(C)C(=O)[C@H](Cc2ccccc2)N(C)C(=O)[C@H](Cc2ccccc2)NC(=O)[C@H](Cc2cccc(Cl)c2)NC(=O)CN(C)C(=O)[C@H](Cc2ccc(Cl)cc2)N(C)C(=O)CN(C)C(=O)CN(C)C1=O (cyclo(F[NMeF][NMeA][X1][NMeA]I[Sar][Sar][NMePhe(4-Cl)][Sar][Phe(3-Cl)])) | – | > 5000 | 0.1
18 | CC[C@H](C)[C@@H]1NC(=O)[C@H](C)N(C)C(=O)C[C@@H](C(=O)n2cccc2)NC(=O)[C@H](CC2CCCCC2)N(C)C(=O)[C@H](Cc2ccccc2)N(C)C(=O)[C@H](Cc2ccccc2)NC(=O)[C@H](Cc2cccc(Cl)c2)NC(=O)CN(C)C(=O)[C@H](Cc2ccc(Cl)cc2)N(C)C(=O)CN(C)C(=O)CN(C)C1=O (cyclo(F[NMeF][NMeCha][X1][NMeA]I[Sar][Sar][NMePhe(4-Cl)][Sar][Phe(3-Cl)])) | – | 670 | 0.07
